Experiments:
[1] = test system: uninfected parent cell line CEM; assay: Cell membrane integrity / viability, uninfected parent cells; assay type: cell-based, human; conditions: incubation and withdrawal, FIG. 12B
Method: FIGS. 12A and B show the loss of cell membrane integrity suffered by HIV-1 producing ACH-2 cells and their uninfected parent cell line CEM during incubation with and after withdrawal of mimosine and HK-1. The black bar indicates the duration of inhibitor exposure, the open bar the duration of inhibitor withdrawal. Cell membrane integrity was determined by the ability of the cells to exclude the low-molecular weight dye trypan blue (FIGS. 12A and B) and to retain the spermidine-derived radioactive label of a single, obligatory intracellular protein species, eIF-5A and its deoxyhypusyl precursor (FIG. 12A).
ACH-2 cells were incubated with hypusine inhibitors (mimosine, HK-1) and induced with PMA as outlined in Example II A, except that the duration of exposure to inhibitor was extended to 18-21 hours and that cells were labeled as detailed in Example I B. Half of the cells were then harvested and processed for detection of apoptosis, while the other half was washed free of inhibitors and re-incubated in fresh medium for 2-4 hours, followed by harvesting and processing for detection of […] apoptosis. Using the same protocol, cultures of the parent CEM cell line were incubated in parallel. […]

Deoxyhypusyl hydroxylase = molecular target: T1, Deoxyhypusyl hydroxylase (Homo sapiens, UniProt Q9BU89); assay: Cellular deoxyhypusyl hydroxylase (hypusine formation) inhibition, human B-cells and human smooth muscle cells; assay type: cell-based; conditions: for Deoxyhypusyl hydroxylase ID50 (cellular): concentration for half-maximal inhibition
T1 construct: endogenous in cells
T1 sequence (Q9BU89 1-302): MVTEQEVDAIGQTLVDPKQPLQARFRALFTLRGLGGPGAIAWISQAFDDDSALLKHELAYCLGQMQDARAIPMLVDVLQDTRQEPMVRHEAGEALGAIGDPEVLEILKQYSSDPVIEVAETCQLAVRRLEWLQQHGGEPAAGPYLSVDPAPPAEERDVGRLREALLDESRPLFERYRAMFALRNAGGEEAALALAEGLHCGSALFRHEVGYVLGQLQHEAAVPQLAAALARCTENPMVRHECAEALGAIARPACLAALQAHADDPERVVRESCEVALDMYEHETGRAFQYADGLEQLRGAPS
Method: The cell-free enzyme assay was performed to test a pilot peptidomimetic which can be equipped with hydroxypyridone warheads. The cell culture studies were performed to establish the inherent inhibitory potency of such hydroxypyridones.
DOHH Assay. The intracellular conversion of peptide-bound deoxyhypusine to peptidyl hypusine was determined after preincubation of human T lymphocyte-derived cells (i.e. ACH-2) [Clouse et al., J. Immunol. 142, 431-438 (1989), which is hereby incorporated by reference] with the hypusine inhibitors mimosine and HK-1 for 60 minutes, followed by labeling for 21 hours with ^3 H-spermidine (3.75 μCi/ml) in wells containing 3×10^6 cells suspended in 8 ml of serum-supplemented and antibiotic-containing RPMI 1640 medium. Cells were then split into two groups, one of them being harvested immediately to assess degree of DOHH inhibition, and the other harvested after transfer of the cells into inhibitor-free medium for 2 hours to measure resumption of DOHH activity. Harvesting consisted in precipitation of washed cells with 10% TCA containing 1 mM each of putrescine, spermidine, and spermine. Cellular proteins from each sample were then hydrolyzed in 6N HCl at 110° C. for 16 hours. The hydrolysate was analyzed for labeled amino acids on an amino acid analyzer by published methods [Park et al., J. Biol. Chem., 257, 7217-7222 (1982), which is hereby incorporated by reference]. The retention times of hypusine and deoxyhypusine were determined from standards. Similar studies were performed in human B-cells and human smooth muscle cells.
The concentration required for half-maximal inhibition (ID50) of the cellular enzyme activity is identified for each compound.

HIV-1 RNA = assay: Splicing analysis (Northern blot) of HIV-1 RNA in PMA-induced ACH-2 cells; assay type: cell-based; conditions: 200 μM, FIG. 7
From the text: At about 9-kb is the position of unspliced viral MRNA species representing the infectious viral genome and encoding key structural proteins for core and capsid. At about 4-kb is the position of incompletely spliced viral MRNA species encoding structural and regulatory proteins. At about 2-kb is the position of completely spliced viral MRNA species encoding regulatory proteins, such as Rev. […] Lane B is for the high level expression of HIV-1 RNA after induction with PMA; note the presence of the 9-kb species.
ACH-2 cells were incubated with hypusine inhibitors (mimosine, HK-1) and induced with PMA as outlined in Example II A. From control cells, from cells induced with PMA, and from PMA-induced cells treated with 200 μM mimosine/HK-1, in each case aliqouts of 1.2×10^7 cells, the total cellular RNA was isolated by the guanidinium isothiocyanate-cesium chloride method [Chirgwin et al., Biochemistrv 18, 5294-5299 (1979), which is hereby incorporated by reference]. Equal quantities of RNA from each cell sample were electrophoresed on a 1% agarose-formaldehyde gel, transferred to nitrocellulose, and hybridized with randomly primed, ^32 P-dCTP-labeled genomic HIV-1 probe pBH10 [Ratner et al., Nature 313, 277-284 (1985), which is hereby incorporated by reference]. Following hybridization, the blots were washed extensively, dried, and autoradiographed. […]

HIV-1 = assay: Titration assay of infectivity of virus (TCID50) produced by infected H9 cells, CEM target cells; assay type: cell-based; conditions: 48 hours, increasing concentrations
Method: 1. Dose-dependency of antiviral effect. Cells of the human T lymphocyte line H9, chronically and productively infected with the Lai (IIIb) strain of HIV-1, were harvested during logarithmic proliferation, extensively washed to remove viral antigens and infectious particles, and re-suspendedin serum-supplemented and antibiotic-containing RPMI 1640 medium at a density of 2×10^5 cells/ml. After incubation with increasing concentrations of mimosine or HK-1 for 48 hours, the cells were harvested, lysed, and used to determine the intracellular amount of the p24 antigen derived from the p55 Gag polyprotein, using a commercially available, p24-specific ELISA method (Coulter, Hialeah, Fla.); the same method was also used to quantify the extracellular level of p24 antigen that had accumulated in the supernatant during incubation with the hypusine inhibitors. In addition, titration assays were performed using CEM target cells to measure the infectivity of virus produced in the absence and presence of the hypusine inhibitors using the procedure of Prince et al., Proc. Natl. Acad. Sci. USA 85, 6944-6948 (1988), which is hereby incorporated by reference. The half-maximal tissue culture infectious doses (TCID50) of HIV-1 per ml of test sample were calculated by the Spearman-Karber method.

SMILES | cell membrane integrity / viability, uninfected CEM [1] | Deoxyhypusyl hydroxylase ID50 (cellular) (Deoxyhypusyl hydroxylase) | HIV-1 RNA splicing pattern (HIV-1 RNA) | production of infectious HIV-1 particles / infectivity of virus (HIV-1) | inhibition of deoxyhypusyl hydroxylase activity, i.e. hypusine formation (Deoxyhypusyl hydroxylase)
Cc1c(O)c(=O)ccn1C [HK-1, 1,2-dimethyl-3-hydroxypyrid-4-one] | no such loss of membrane integrity was noted | 90 | apparent lack of 9-kb and 4-kb species | dose-dependently suppressive effect | –
N[C@@H](Cn1ccc(=O)c(O)c1)C(=O)O [L-Mimosine] | no such loss of membrane integrity was noted | 65 | apparent lack of the 9-kb species | dose-dependently suppressive effect | efficiently inhibit deoxyhypusyl hydroxylase activity

Reference: US5849587A, “Method of inhibiting viral replication in eukaryotic cells and of inducing apoptosis of virally-infected cells” (Cornell Research Foundation, Inc., priority 1995, dated 1998)
